Data as given in US10800791B2, “Triazole ACC inhibitors and uses thereof” (Gilead Apollo, LLC, priority 2015, dated 2020).
Values after ≈ are worked out from the molar mass of the structure shown. Like-named read-outs stand apart in the source and are kept apart here.

Legend:
[1] = system: Collectotrichum graminicola (Cg); experiment: Growth inhibition assay of fungal pathogens, Cg; format: cell-based; conditions: 48 h
Outline: (§1)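 Inhibition percentages reflect 48 h OD600 and visual scores relative to a 2% DMSO control. Test concentrations were 50, 10, 2 ppm or 2, 0.4, 0.08 ppm final, applied to spores in 17% V8 medium.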

[2] = biological target: human (hACC2) (Homo sapiens, UniProt O00763); experiment: In vitro ACC inhibition assay (ADP-Glo), hACC2; format: biochemical; conditions: 5 nM ACC2, 20 μM ATP, 20 μM acetyl-CoA
Chain of human (hACC2) (O00763 whole entry): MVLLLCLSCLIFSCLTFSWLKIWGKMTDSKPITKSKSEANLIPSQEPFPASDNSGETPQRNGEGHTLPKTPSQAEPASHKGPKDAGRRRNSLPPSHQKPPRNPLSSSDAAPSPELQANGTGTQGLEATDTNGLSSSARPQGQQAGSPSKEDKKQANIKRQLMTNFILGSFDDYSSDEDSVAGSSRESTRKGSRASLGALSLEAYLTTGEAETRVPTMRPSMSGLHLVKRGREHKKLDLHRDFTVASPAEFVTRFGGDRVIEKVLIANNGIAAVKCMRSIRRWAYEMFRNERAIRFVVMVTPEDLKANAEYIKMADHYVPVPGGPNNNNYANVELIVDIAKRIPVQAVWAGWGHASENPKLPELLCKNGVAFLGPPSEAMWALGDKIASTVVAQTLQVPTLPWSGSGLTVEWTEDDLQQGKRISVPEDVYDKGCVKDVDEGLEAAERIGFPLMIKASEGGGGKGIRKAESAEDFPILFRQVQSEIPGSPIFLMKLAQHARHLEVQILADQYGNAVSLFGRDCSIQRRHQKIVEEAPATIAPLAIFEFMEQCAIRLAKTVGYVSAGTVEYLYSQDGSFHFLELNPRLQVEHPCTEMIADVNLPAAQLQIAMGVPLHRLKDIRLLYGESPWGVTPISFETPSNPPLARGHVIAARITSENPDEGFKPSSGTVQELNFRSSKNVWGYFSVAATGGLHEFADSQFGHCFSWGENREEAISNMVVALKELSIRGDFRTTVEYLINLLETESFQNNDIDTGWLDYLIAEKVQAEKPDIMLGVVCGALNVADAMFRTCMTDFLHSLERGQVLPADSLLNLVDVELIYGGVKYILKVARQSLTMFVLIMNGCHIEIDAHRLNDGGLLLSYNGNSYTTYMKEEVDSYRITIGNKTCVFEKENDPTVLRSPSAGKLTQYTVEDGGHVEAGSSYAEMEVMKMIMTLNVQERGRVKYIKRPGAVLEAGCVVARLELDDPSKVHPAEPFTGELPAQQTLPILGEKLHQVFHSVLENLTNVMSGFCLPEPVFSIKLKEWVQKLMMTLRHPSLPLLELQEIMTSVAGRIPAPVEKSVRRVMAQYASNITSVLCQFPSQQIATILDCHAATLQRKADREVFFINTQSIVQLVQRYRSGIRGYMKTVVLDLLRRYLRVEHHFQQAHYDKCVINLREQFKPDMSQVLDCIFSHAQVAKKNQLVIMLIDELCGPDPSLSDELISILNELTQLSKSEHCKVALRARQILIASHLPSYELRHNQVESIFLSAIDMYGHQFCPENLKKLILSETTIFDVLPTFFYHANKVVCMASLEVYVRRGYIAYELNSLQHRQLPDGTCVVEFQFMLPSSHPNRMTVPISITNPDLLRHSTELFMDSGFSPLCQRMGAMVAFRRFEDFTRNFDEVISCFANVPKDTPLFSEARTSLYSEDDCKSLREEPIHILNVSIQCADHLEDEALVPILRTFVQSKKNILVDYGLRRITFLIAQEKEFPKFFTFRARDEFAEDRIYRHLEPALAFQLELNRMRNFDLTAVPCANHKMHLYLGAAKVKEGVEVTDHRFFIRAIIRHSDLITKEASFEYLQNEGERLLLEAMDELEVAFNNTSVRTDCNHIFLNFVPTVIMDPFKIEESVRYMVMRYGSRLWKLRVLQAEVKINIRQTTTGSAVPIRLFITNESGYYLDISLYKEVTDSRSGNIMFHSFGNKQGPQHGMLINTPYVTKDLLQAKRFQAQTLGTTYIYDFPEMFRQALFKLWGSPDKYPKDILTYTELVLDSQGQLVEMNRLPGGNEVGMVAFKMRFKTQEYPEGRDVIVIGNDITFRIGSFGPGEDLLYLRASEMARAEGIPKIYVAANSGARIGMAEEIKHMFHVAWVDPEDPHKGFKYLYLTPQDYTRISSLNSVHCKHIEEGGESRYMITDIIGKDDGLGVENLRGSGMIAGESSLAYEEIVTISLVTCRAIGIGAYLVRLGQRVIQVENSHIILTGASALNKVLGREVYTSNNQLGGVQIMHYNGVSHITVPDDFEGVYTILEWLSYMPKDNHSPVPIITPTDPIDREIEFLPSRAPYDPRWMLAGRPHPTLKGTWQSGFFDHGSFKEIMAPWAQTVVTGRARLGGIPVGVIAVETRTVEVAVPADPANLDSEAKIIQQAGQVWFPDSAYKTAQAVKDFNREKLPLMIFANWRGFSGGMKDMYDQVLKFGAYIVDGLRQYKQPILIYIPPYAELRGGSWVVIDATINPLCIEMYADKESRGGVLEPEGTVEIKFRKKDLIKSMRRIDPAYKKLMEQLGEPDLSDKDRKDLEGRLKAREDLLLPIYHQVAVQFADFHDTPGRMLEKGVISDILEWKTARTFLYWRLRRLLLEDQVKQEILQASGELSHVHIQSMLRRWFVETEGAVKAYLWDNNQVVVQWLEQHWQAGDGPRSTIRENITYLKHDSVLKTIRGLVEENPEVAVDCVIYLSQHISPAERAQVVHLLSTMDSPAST
Description: The detailed procedure is as follows. […] 10 μL ADP glo reagent was added. […] 20 μL kinase detection reagent was added.

[3] = system: Phytophthora capsici (Pc); experiment: Growth inhibition assay of fungal pathogens, Pc; format: cell-based; conditions: 48 h
Outline: as §1

[4] = system: Septoria tritici (St); experiment: Growth inhibition assay of fungal pathogens, St; format: cell-based; conditions: Zymoseptoria tritici, 48 h
Outline: as §1

[5] = system: C. parapsilosis; experiment: Antifungal Activity Assay (broth microtiter MIC), C. parapsilosis; format: cell-based, Candida parapsilosis; conditions: Lodderomyces parapsilosis, ATCC22019, 48 h
Outline: (§2)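 Susceptibility was determined by CLSI M27-A3 broth microdilution in RPMI 1640 buffered with MOPS. Growth inhibition was scored visually after 48 h.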

[6] = system: C. krusei; experiment: Antifungal Activity Assay (broth microtiter MIC), C. krusei; format: cell-based, Candida krusei; conditions: Pichia kudriavzevii, ATCC6258, 48 h
Outline: as §2

[7] = system: Fusarium virguliforme (Fv); experiment: Growth inhibition assay of fungal pathogens, Fv; format: cell-based; conditions: 48 h
Outline: as §1

[8] = system: Fusarium moniliforme (Fm); experiment: Growth inhibition assay of fungal pathogens, Fm; format: cell-based; conditions: for IC90: Fusarium verticillioides, 48 h, read-out: Concentration at 90% Inhibition Fm
Outline: as §1

[9] = system: Rhizoctonia solani (Rs); experiment: Growth inhibition assay of fungal pathogens, Rs; format: cell-based; conditions: 48 h
[10] = read-out: Concentration at 90% Inhibition Cg, Collectotrichum graminicola, growth inhibition at 48 hours vs 2% DMSO control
[11] = read-out: Concentration at 90% Inhibition Cg, Collectotrichum graminicola, growth inhibition vs 2% DMSO control at 48 hours
[12] = read-out: Concentration at 90% Inhibition Pc, Phytophthora capsici, growth inhibition at 48 hours vs 2% DMSO control
[13] = read-out: Concentration at 90% Inhibition Pc, Phytophthora capsici, growth inhibition vs 2% DMSO control at 48 hours
[14] = read-out: Concentration at 90% Inhibition St, Septoria tritici, growth inhibition at 48 hours vs 2% DMSO control
[15] = read-out: Concentration at 90% Inhibition St, Septoria tritici, growth inhibition vs 2% DMSO control at 48 hours
[16] = read-out: MIC, C. parapsilosis ATCC 22019, Table 3a, 3 replicates, MIC recorded at 48 h
[17] = read-out: MIC, C. parapsilosis ATCC 22019, Table 3b (additional results), 3 replicates, MIC recorded at 48 h
[18] = read-out: MIC, C. krusei ATCC 6258, Table 3a, 3 replicates, MIC recorded at 48 h
[19] = read-out: MIC, C. krusei ATCC 6258, Table 3b (additional results), 3 replicates, MIC recorded at 48 h
[20] = read-out: Concentration at 90% Inhibition Fv, Fusarium virguliforme, growth inhibition at 48 hours vs 2% DMSO control
[21] = read-out: Concentration at 90% Inhibition Fv, Fusarium virguliforme, growth inhibition vs 2% DMSO control at 48 hours
[22] = Fusarium moniliforme, growth inhibition at 48 hours vs 2% DMSO control
[23] = read-out: Concentration at 90% Inhibition Rs, Rhizoctonia solani, mycelial plugs, growth inhibition at 48 hours vs 2% DMSO control
[24] = read-out: Concentration at 90% Inhibition Rs, Rhizoctonia solani, mycelial plugs, growth inhibition vs 2% DMSO control at 48 hours
[25] = Collectotrichum graminicola, growth inhibition at 48 hours vs 2% DMSO control, read-out: Concentration at 90% Inhibition Cg
[26] = Collectotrichum graminicola, growth inhibition vs 2% DMSO control at 48 hours, read-out: Concentration at 90% Inhibition Cg
[27] = growth inhibition at 48 hours vs 2% DMSO control, read-out: Concentration at 90% Inhibition Pc
[28] = growth inhibition vs 2% DMSO control at 48 hours, read-out: Concentration at 90% Inhibition Pc
[29] = Septoria tritici, growth inhibition at 48 hours vs 2% DMSO control, read-out: Concentration at 90% Inhibition St
[30] = Septoria tritici, growth inhibition vs 2% DMSO control at 48 hours, read-out: Concentration at 90% Inhibition St
[31] = Table 3a, ATCC 22019, 3 replicates, MIC recorded at 48 h, read-out: MIC, C. parapsilosis ATCC 22019
[32] = Table 3b (additional results), ATCC 22019, 3 replicates, MIC recorded at 48 h, read-out: MIC, C. parapsilosis ATCC 22019
[33] = Table 3a, ATCC 6258, 3 replicates, MIC recorded at 48 h, read-out: MIC, C. krusei ATCC 6258
[34] = Table 3b (additional results), ATCC 6258, 3 replicates, MIC recorded at 48 h, read-out: MIC, C. krusei ATCC 6258
[35] = growth inhibition at 48 hours vs 2% DMSO control, read-out: Concentration at 90% Inhibition Fv
[36] = growth inhibition vs 2% DMSO control at 48 hours, read-out: Concentration at 90% Inhibition Fv
[37] = Fusarium moniliforme, growth inhibition vs 2% DMSO control at 48 hours
[38] = mycelial plugs, growth inhibition at 48 hours vs 2% DMSO control, read-out: Concentration at 90% Inhibition Rs
[39] = mycelial plugs, growth inhibition vs 2% DMSO control at 48 hours, read-out: Concentration at 90% Inhibition Rs

Structure (SMILES)	IC90 [1, 10]	IC90 [1, 11]	IC50 ([2]; Table 2a)	IC50 ([2]; Table 2b, additional results)	IC90 [3, 12]	IC90 [3, 13]	IC90 [4, 14]	IC90 [4, 15]	MIC [5, 16]	MIC [5, 17]	MIC [6, 18]	MIC [6, 19]	IC90 [7, 20]	IC90 [7, 21]	Concentration at 90% Inhibition Fm [8, 22]	IC90 [8]	IC90 [9, 23]	IC90 [9, 24]	IC90 [1, 25]	IC90 [1, 26]	also measured
COc1ccc(F)cc1[C@H](Cn1c(=O)n(C(C)(C)C(=O)NC(C)C)c(=O)c2c(C)c(-n3nccn3)sc21)OC1CCC(=O)CC1 [Compound I-32, (R)-2-(1-(2-(5-fluoro-2-methoxyphenyl)-2-((4-oxocyclo-hexyl)oxy)ethyl)-5-methyl-2,4-dioxo-6-(2H-1,2,3-triazol-2-yl)-1,4-dihydro-thieno[2,3-d]pyrimidin-3(2H)-yl)-N-isopropyl-2-methylpropanamide]	2 µg/mL (≈ 3.12 µM)	2 µg/mL (≈ 3.12 µM)	5 to 10 nM	5 to 10 nM	> 50 µg/mL	> 50 µg/mL	> 50 µg/mL	> 50 µg/mL	0.25 to 1 µg/mL (≈ 0.39 to 1.56 µM)	0.25 to 1 µg/mL (≈ 0.39 to 1.56 µM)	0.06 to 0.24 µg/mL (≈ 0.0936 to 0.375 µM)	0.06 to 0.249 µg/mL (≈ 0.0936 to 0.389 µM)	0.4 µg/mL (≈ 0.624 µM)	0.4 µg/mL (≈ 0.624 µM)	AA (compound concentration of 0.08 ppm at 90% inhibition of fungal pathogens)	0.08 µg/mL (≈ 0.125 µM)	0.08 µg/mL (≈ 0.125 µM)	0.08 µg/mL (≈ 0.125 µM)			
COc1ccc(F)cc1[C@H](Cn1c(=O)n(C(C)(C)C(N)=O)c(=O)c2c(C)c(-n3nccn3)sc21)OCC(C)C [Compound I-8, (R)-2-(1-(2-(5-fluoro-2-methoxyphenyl)-2-isobutoxyethyl)-5-methyl-2,4-dioxo-6-(2H-1,2,3-triazol-2-yl)-1,4-dihydrothieno[2,3-d]pyrimidin-3(2H)-yl)-2-methylpropanamide]			5 to 10 nM	5 to 10 nM															2 µg/mL (≈ 3.58 µM)	2 µg/mL (≈ 3.58 µM)	IC90 [3, 27]: > 50 µg/mL; IC90 [3, 28]: > 50 µg/mL; IC90 [4, 29]: > 50 µg/mL; IC90 [4, 30]: > 50 µg/mL; MIC [5, 31]: 2.1 to 4 µg/mL (≈ 3.76 to 7.16 µM); MIC [5, 32]: 2.01 to 4 µg/mL (≈ 3.6 to 7.16 µM); MIC [6, 33]: 1.1 to 2 µg/mL (≈ 1.97 to 3.58 µM); MIC [6, 34]: 1.01 to 2 µg/mL (≈ 1.81 to 3.58 µM); IC90 [7, 35]: 2 µg/mL (≈ 3.58 µM); IC90 [7, 36]: 2 µg/mL (≈ 3.58 µM); IC90 [8, 22]: 0.08 µg/mL (≈ 0.143 µM); IC90 [8, 37]: 0.08 µg/mL (≈ 0.143 µM); IC90 [9, 38]: 2 µg/mL (≈ 3.58 µM); IC90 [9, 39]: 2 µg/mL (≈ 3.58 µM)
COc1ccc(F)cc1[C@H](Cn1c(=O)n(C(C)(C)C(N)=O)c(=O)c2c(C)c(-n3nccn3)sc21)OC1CCC(=O)CC1 [Compound I-31, (R)-2-(1-(2-(5-fluoro-2-methoxyphenyl)-2-((4-oxocyclo-hexyl)oxy)ethyl)-5-methyl-2,4-dioxo-6-(2H-1,2,3-triazol-2-yl)-1,4-dihydrothieno[2,3-d]pyrimidin-3(2H)-yl)-2-methylpropanamide]			5 to 10 nM	5 to 10 nM															10 µg/mL (≈ 16.7 µM)	> 50 µg/mL	IC90 [3, 27]: > 50 µg/mL; IC90 [3, 28]: > 50 µg/mL; IC90 [4, 29]: > 50 µg/mL; IC90 [4, 30]: > 50 µg/mL; MIC [5, 31]: 1.1 to 2 µg/mL (≈ 1.84 to 3.34 µM); MIC [5, 32]: 2.01 to 4 µg/mL (≈ 3.36 to 6.68 µM); MIC [6, 33]: 0.25 to 1 µg/mL (≈ 0.418 to 1.67 µM); MIC [6, 34]: 0.25 to 1 µg/mL (≈ 0.418 to 1.67 µM); IC90 [7, 35]: 10 µg/mL (≈ 16.7 µM); IC90 [7, 36]: > 50 µg/mL; IC90 [8, 22]: 0.4 µg/mL (≈ 0.668 µM); IC90 [8, 37]: 0.4 µg/mL (≈ 0.668 µM); IC90 [9, 38]: 2 µg/mL (≈ 3.34 µM); IC90 [9, 39]: 2 µg/mL (≈ 3.34 µM)
COc1ccc(F)cc1[C@H](Cn1c(=O)n(C(C)(C)C(=O)N2CCCCC2)c(=O)c2c(C)c(-n3nccn3)sc21)OC1CCOCC1 [Compound I-24, (R)-1-(2-(5-fluoro-2-methoxyphenyl)-2-((tetrahydro-2H-pyran-4-yl)oxy)ethyl)-5-methyl-3-(2-methyl-1-oxo-1-(piperidin-1-yl)propan-2-yl)-6-(2H-1,2,3-triazol-2-yl)thieno[2,3-d]pyrimidine-2,4(1H,3H)-dione]	0.08 µg/mL (≈ 0.122 µM)	0.08 µg/mL (≈ 0.122 µM)	10 to 40 nM	10 to 40 nM	> 50 µg/mL	> 50 µg/mL	2 µg/mL (≈ 3.05 µM)	10 µg/mL (≈ 15.3 µM)	0.25 to 1 µg/mL (≈ 0.382 to 1.53 µM)	0.25 to 1 µg/mL (≈ 0.382 to 1.53 µM)	0.25 to 1 µg/mL (≈ 0.382 to 1.53 µM)	0.25 to 1 µg/mL (≈ 0.382 to 1.53 µM)	0.4 µg/mL (≈ 0.611 µM)	0.4 µg/mL (≈ 0.611 µM)	AA (compound concentration of 0.08 ppm at 90% inhibition of fungal pathogens)	0.08 µg/mL (≈ 0.122 µM)	0.08 µg/mL (≈ 0.122 µM)	0.08 µg/mL (≈ 0.122 µM)			
COc1ccc(F)cc1[C@H](Cn1c(=O)n(C(C)(C)C(=O)N2CCOCC2)c(=O)c2c(C)c(-n3nccn3)sc21)OC(C)C [Compound I-5, (R)-1-(2-(5-fluoro-2-methoxyphenyl)-2-isopropoxyethyl)-5-methyl-3-(2-methyl-1-morpholino-1-oxopropan-2-yl)-6-(2H-1,2,3-triazol-2-yl)thieno[2,3-d]pyrimidine-2,4(1H,3H)-dione]	2 µg/mL (≈ 3.25 µM)	2 µg/mL (≈ 3.25 µM)	10 to 40 nM	10 to 40 nM	> 50 µg/mL	> 50 µg/mL	10 µg/mL (≈ 16.3 µM)	> 50 µg/mL	2.1 to 4 µg/mL (≈ 3.42 to 6.51 µM)	> 4.01 µg/mL	1.1 to 2 µg/mL (≈ 1.79 to 3.25 µM)	2.01 to 4 µg/mL (≈ 3.27 to 6.51 µM)	0.4 µg/mL (≈ 0.651 µM)	0.4 µg/mL (≈ 0.651 µM)	AA (compound concentration of 0.08 ppm at 90% inhibition of fungal pathogens)	0.08 µg/mL (≈ 0.13 µM)	0.4 µg/mL (≈ 0.651 µM)	0.4 µg/mL (≈ 0.651 µM)			
COc1ccccc1[C@H](Cn1c(=O)n(C(C)(C)C(=O)N2CC(O)C2)c(=O)c2c(C)c(-n3nccn3)sc21)OC1CCOCC1 [Compound I-19, (R)-3-(1-(3-hydroxyazetidin-1-yl)-2-methyl-1-oxopropan-2-yl)-1-(2-(2-methoxyphenyl)-2-((tetrahydro-2H-pyran-4-yl)oxy)ethyl)-5-methyl-6-(2H-1,2,3-triazol-2-yl)thieno[2,3-d]pyrimidine-2,4(1H,3H)-dione]	> 50 µg/mL	> 50 µg/mL	10 to 40 nM	10 to 40 nM	> 50 µg/mL	> 50 µg/mL	> 50 µg/mL	> 50 µg/mL	2.1 to 4 µg/mL (≈ 3.36 to 6.4 µM)	1.01 to 2 µg/mL (≈ 1.62 to 3.2 µM)	2.1 to 4 µg/mL (≈ 3.36 to 6.4 µM)	2.01 to 4 µg/mL (≈ 3.22 to 6.4 µM)	10 µg/mL (≈ 16 µM)	> 50 µg/mL	B (compound concentration of 2.0 ppm at 90% inhibition of fungal pathogens)	2 µg/mL (≈ 3.2 µM)	10 µg/mL (≈ 16 µM)	> 50 µg/mL			
